Biological target: Coagulation factor IX (Homo sapiens, UniProt P00740)
Test: Test substances dissolved in buffer A (50 mM α,α,α-tris (hydroxymethyl)methylamine (Tris), 100 mM NaCl, 5 mM CaCl2, 15% (v/v) ethylene glycol, pH 8.0) were mixed with factor IXa (2.0 μg/ml final concentration). The enzyme reaction was started by addition of SPECTROFLUOR FIXa (100 μM final concentration).

Sequence of Coagulation factor IX (P00740 47-191 limits assumed): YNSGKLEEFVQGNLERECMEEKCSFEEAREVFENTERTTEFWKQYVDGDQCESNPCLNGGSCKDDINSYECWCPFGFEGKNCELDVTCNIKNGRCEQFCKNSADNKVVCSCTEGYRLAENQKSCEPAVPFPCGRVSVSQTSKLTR
Sequence of Coagulation factor IX (P00740 227-461 limits assumed): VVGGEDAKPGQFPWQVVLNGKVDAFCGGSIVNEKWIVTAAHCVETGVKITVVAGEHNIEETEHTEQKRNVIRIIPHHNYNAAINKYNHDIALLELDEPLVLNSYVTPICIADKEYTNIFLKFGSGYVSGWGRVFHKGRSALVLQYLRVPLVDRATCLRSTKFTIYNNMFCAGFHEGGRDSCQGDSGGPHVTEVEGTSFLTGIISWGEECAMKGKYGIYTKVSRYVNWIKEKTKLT

Structure (SMILES): Cc1ccc(CN2CCO[C@H]([C@@H](O)C(=O)Nc3ccc(C(=N)N)cc3)C2=O)cc1
- IC50: 130 nM
